These results are taken from ChEMBL document CHEMBL5308504, “Tm Shift (DSF) assay results for EUbOPEN Chemogenomics Library” (2023).

Where “and” joins values, the source holds several entries; their conditions need not be identical. Equal values may be shown once.

In general, ΔTm refers to the shift of the melting midpoint relative to a reference.

The target in experiment [1] is T1, Peregrin (Homo sapiens) (UniProt P55201).
T1 sequence (whole entry): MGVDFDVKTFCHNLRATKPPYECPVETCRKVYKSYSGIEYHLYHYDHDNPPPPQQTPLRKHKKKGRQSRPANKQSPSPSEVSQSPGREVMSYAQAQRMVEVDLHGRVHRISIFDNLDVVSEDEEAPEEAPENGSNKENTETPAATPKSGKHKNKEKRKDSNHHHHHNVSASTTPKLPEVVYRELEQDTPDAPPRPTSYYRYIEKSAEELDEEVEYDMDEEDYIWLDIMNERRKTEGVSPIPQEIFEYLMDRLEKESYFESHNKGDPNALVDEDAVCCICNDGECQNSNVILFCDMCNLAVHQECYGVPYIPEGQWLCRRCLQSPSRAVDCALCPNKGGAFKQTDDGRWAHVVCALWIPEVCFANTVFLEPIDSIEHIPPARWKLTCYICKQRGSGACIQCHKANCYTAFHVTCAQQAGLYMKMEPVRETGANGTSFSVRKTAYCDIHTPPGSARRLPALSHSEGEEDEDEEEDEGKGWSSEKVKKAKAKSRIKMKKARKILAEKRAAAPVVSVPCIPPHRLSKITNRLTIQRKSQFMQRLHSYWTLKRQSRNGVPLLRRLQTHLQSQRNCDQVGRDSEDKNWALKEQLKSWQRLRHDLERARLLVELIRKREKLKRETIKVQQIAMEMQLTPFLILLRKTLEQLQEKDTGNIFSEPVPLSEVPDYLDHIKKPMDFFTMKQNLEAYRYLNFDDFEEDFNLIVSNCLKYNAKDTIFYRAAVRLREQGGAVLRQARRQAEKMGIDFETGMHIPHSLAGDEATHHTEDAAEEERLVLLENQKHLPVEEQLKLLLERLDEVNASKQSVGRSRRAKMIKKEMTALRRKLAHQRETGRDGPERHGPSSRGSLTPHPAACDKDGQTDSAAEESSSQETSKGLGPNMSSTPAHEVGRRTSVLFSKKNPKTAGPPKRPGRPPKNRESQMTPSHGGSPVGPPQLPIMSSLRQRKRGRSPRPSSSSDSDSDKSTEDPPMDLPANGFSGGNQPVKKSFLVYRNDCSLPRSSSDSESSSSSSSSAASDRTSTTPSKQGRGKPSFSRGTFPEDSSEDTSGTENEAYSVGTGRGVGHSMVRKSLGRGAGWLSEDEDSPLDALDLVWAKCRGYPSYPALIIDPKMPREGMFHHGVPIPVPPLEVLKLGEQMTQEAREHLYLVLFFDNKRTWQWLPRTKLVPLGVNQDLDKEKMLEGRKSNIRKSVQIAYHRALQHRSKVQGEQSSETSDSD
Particulars: Compound concentration 20.0 uM, Protein concentration 2.0 uM, Result type QC Liability.

Experiment [2] addresses Fibroblast growth factor receptor 3 (Homo sapiens) (UniProt P22607). To be noted: Compound concentration 20.0 uM, Protein concentration 2.0 uM, Result type QC Liability.
Description: Thermal Shift Assay. Domain: start/stop: P449-E759

Fibroblast growth factor receptor 3 (Homo sapiens), sequence (P22607 23-806 limits assumed): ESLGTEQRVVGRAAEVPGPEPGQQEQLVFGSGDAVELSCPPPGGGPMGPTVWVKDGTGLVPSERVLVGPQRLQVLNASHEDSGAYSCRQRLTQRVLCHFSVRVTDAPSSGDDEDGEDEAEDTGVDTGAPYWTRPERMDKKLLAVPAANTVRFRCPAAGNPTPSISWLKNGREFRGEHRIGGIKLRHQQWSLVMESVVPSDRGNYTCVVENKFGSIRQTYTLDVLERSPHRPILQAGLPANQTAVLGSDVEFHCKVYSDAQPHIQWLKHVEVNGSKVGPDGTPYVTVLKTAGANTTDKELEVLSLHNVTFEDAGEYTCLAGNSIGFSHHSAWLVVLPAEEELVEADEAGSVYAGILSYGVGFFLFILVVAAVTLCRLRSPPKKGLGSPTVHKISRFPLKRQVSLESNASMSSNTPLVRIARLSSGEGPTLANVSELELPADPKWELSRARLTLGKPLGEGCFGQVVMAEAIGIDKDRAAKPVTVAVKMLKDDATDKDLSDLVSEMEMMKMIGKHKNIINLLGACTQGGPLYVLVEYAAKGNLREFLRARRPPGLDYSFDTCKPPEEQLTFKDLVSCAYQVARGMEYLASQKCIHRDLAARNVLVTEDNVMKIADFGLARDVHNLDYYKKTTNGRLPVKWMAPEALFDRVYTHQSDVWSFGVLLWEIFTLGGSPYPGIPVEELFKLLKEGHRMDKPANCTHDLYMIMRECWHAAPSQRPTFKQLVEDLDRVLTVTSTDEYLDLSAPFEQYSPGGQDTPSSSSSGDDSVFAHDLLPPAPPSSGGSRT

For `COC(=O)Nc1nc2c(s1)-c1c(c(-c3cccnc3)nn1-c1ccc(C3(N(C)C)CC3)cc1)CC2`, the ΔTm was -1.72 °C in experiment [1] and 1.4 °C in experiment [2].
In the same order, the values of `CCc1cc2c(cc1N1CCC(N3CCOCC3)CC1)C(C)(C)c1[nH]c3cc(C#N)ccc3c1C2=O` are -1 °C and 0.56 °C.
For `Cc1ccc(-n2nc(C(C)(C)C)cc2NC(=O)Nc2ccc(OCCN3CCOCC3)c3ccccc23)cc1`, the ΔTm was -3.09 °C and -0.42 °C in experiment [1]; 3.18 °C and 3.23 °C in experiment [2].
`COc1cc2nc([C@@H]3CCCS(=O)(=O)C3)n(C)c2cc1NC(=O)c1cccc(C(C)(F)F)n1`: the ΔTm is -2.41 °C in experiment [1] and 0.66 °C in experiment [2].
As for `c1ccc(C(OC2CCN(CCCc3nnn[nH]3)CC2)c2ccccc2)cc1`, the shift in melting temperature (ΔTm) in experiment [1] was -2.95 °C; in experiment [2], 0.52 °C.
In the same order, the values of `Fc1ccc(-c2nc(-c3c(F)cccc3F)[nH]c2-c2ccncc2)cc1` are 0.63 °C and 2.21 °C.
For `Cc1nc2cccnc2n2c(-c3cc([C@@]4(O)CCCOC4)ccc3Cl)nnc12`, in that order: -2.38 °C and 0.59 °C.
In the same order, the values of `CNC(=O)c1cc(C(=O)NC2CC2)cn(Cc2ccccc2)c1=O` are -0.87 °C and 0.5 °C.
In the case of `O=C(Nc1ccnc(NC(=O)C2CC2)c1)c1c(Cl)cccc1Cl`, the figures for the ΔTm in experiment [1] and in experiment [2] were -1.28 °C and 3.21 °C, respectively.
For `CCC(=O)O[C@@H](OP(=O)(CCCCc1ccccc1)CC(=O)N1C[C@H](C2CCCCC2)C[C@H]1C(=O)O)C(C)C` (stereo not given in full), in that order: -1.88 °C and 0.42 °C.
In the case of `COc1ccc(CSc2nnc(-c3ccc4ncsc4c3)o2)cc1C(F)(F)F`, the results for the ΔTm in experiment [1] and in experiment [2] were -1.83 °C and -7.8 °C, respectively.
On to `CNc1[nH]c(Nc2ccc(C(=O)N3CCOCC3)cc2OC)nc2ncc(Cl)c1-2`, for which the ΔTm was -1.81 °C in experiment [1] and 0.62 °C in experiment [2].
For `Cc1ncsc1-c1ccc(CNC(=O)[C@@H]2C[C@H](O)CN2C(=O)[C@@H](NC(=O)C2(F)CC2)C(C)(C)C)c(OCCOc2ccc(CN3CCN(c4cc(-c5ccccc5O)nnc4N)CC3)cc2)c1` (relative stereo), in that order: 4.18 °C and -0.13 °C.
In the same order, the values of `CCS(=O)(=O)Nc1cccc(Oc2cncc(Nc3ccc(I)cc3F)c2C(N)=O)c1` are -2.79 °C and 1.17 °C.
On to `O=C(Nc1ccccc1C(=O)O)c1cc(S(=O)(=O)c2ccccc2)ccc1Cl`, for which the shift in melting temperature (ΔTm) was -3.6 °C in experiment [1] and 0.83 °C in experiment [2].
With `Cc1cc(Cn2c(N3CC4(CNC4)C3)nc3cc(Cl)cc(N4CCN(C)CC4)c32)cc(C)c1F`, the ΔTm in experiment [1] was -2.07 °C; in experiment [2], 1.32 °C.
In the same order, the values of `O=c1[nH]c(CS[C@H]2CC[C@H](O)CC2)nc2cc(OCC3CC3)cc(F)c12` are -0.45 °C and 0.65 °C.
Consider `CC(C)(c1ccc(OCc2cccc(COc3ccc(C(=N)N)cc3)c2)cc1)c1ccc(O[C@@H]2O[C@H](C(=O)O)[C@@H](O)[C@H](O)[C@H]2O)cc1`, for which the ΔTm in experiment [1] was -6.79 °C; in experiment [2] it was -5.02 °C.
Consider `CNC(=O)c1ccc2c(c1)ncn2-c1ccc(CC(=O)OC(C)(C)C)cc1`, for which the ΔTm in experiment [1] is -1.38 °C; in experiment [2], 4.13 °C.
With `NC(=O)c1ccccc1Nc1nc(-c2ccc(N3CCOCC3)cc2)cc2ncccc12`, the ΔTm in experiment [1] is -0.11 °C; in experiment [2] it was 4.32 °C.
`Nc1ncnc2c1ccn2[C@@H]1O[C@H]([C@@H](O)c2ccccc2)[C@@H](O)[C@H]1O`: the ΔTm in experiment [1] was -1.55 °C; in experiment [2], 0.72 °C.
In the case of `CCN1C(=O)/C(=C(\NC2CCN(C)CC2)c2ccc3c(c2)OCO3)c2cc(C(C)=O)ccc21`, the ΔTm in experiment [1] is -1.89 °C; in experiment [2], 1.13 °C.
In the same order, the values of `Cc1cc(=O)oc2cc(NC(=O)[C@H](Cc3ccc(I)cc3)NC(=O)[C@H]3N[C@@H]4CC[C@H]3C4)ccc12` are -1.46 °C and 0.37 °C.
For the compound `COc1ccc(-n2nc(C(F)(F)F)cc2-c2ccc(Cl)cc2)cc1`, the figures for the ΔTm in experiment [1] and in experiment [2] were -3.19 °C and 0.81 °C, respectively.
In the same order, the values of `CC(C=CC1=C(C)CCCC1(C)C)=CC=CC(C)=CC(=O)O` are -2.28 °C and 0.68 °C.
For the compound `Cc1cc(OC2CCS(=O)(=O)CC2)cc(C)c1-c1cccc(COc2ccc(CCC(=O)O)c(F)c2)c1`, the ΔTm in experiment [1] was -4.37 °C; in experiment [2], 0.31 °C.
Turning to `O=C(O)CCCCCC[C@@H]1C(=O)NC(=O)N1CCC(O)C1CCCCC1` (stereo not given in full), the ΔTm in experiment [1] was -2.88 °C; in experiment [2], 0.47 °C.
For `C=C1/C(=C\C=C2/CCC[C@]3(C)[C@@H]([C@H](C)CCCC(C)(C)O)CC[C@@H]23)C[C@@H](O)C[C@@H]1O`, in that order: -2.59 °C and 1.25 °C.
For `C[C@H](CCOc1cccc(CC(=O)O)c1)N(Cc1cccc(C(F)(F)F)c1Cl)CC(c1ccccc1)c1ccccc1`, the ΔTm in experiment [1] was -4.82 °C; in experiment [2], 2.11 °C.
For `COc1cc(Oc2nc(-c3ccc(NC(=O)C4CCOC4)cc3)nn3c(C)nc(C)c23)cc(OC)c1OC` (stereo not given), in that order: -1.59 °C and 1.34 °C.
Take `CN[C@@H](C)C(=O)N[C@H](C(=O)N1CCC[C@H]1c1nc(C(=O)c2ccc(F)cc2)cs1)C1CCCCC1`: the ΔTm in experiment [1] was -1.91 °C; in experiment [2] it was 0.96 °C.
For `Cn1nc(C(=O)NCc2ccc(C(=O)O)cc2)cc1-c1ccc2[nH]ccc2c1`, in that order: -1.95 °C and 0.9 °C.
With `Cn1cc(-c2cnc3ccc4ccc(CS(=O)(=O)NCc5ccccn5)cc4c(=O)c3c2)cn1`, the ΔTm was -1.66 °C in experiment [1] and 3.77 °C in experiment [2].
`CN(CC(=O)Nc1ccc(F)c(F)c1F)C(=O)c1ccc2c(c1)OCCO2`: the values for the ΔTm in experiment [1] and in experiment [2] were -0.72 °C and 0.6 °C, respectively.
In the same order, the values of `Cc1cc2c(-c3ccco3)cnc(N[C@H]3CCN(C)C[C@@H]3C(=O)NC3CCCCC3)c2[nH]c1=O` are -1.73 °C and 1 °C.
Take `CCO[C@H](COc1ccc(C(F)(F)F)cc1)CSc1ccc(OCC(=O)O)c(C)c1`: the ΔTm in experiment [1] is -0.87 °C; in experiment [2], 0.48 °C.
Turning to `CC(C)Nc1ncnc2cc(OCc3cccc([S@@](C)(=N)=O)c3)c(Br)cc12`, the ΔTm in experiment [1] was -2.23 °C; in experiment [2], 1.64 °C.
For `Cc1nnc2n1-c1sc3c(c1C(c1ccccc1Cl)=NC2)CC(C(=O)N1CCOCC1)C3` (stereo not given), in that order: -1.83 °C and 0.52 °C.
For `O=C(Nc1ccc(Cl)c(-c2ccccn2)c1)c1cccc(COc2ccc(Br)cc2CNCCO)c1`, in that order: -0.98 °C and 0.69 °C.
In the same order, the values of `CSc1ccc(C(=O)/C=C/c2cc(C)c(OC(C)(C)C(=O)O)c(C)c2)cc1` are -1.39 °C and 1.12 °C.
For the compound `CC1CCN(c2ccnc(NCc3cn(C)cn3)n2)CC1`, the ΔTm was -2.32 °C in experiment [1] and 0.69 °C in experiment [2].
For `CC1=C(C(=O)OCCO)[C@@H](c2ccc(C#N)cc2)NC(=O)N1c1cccc(C(F)(F)F)c1`, in that order: -1.72 °C and 0.42 °C.
For `Cn1cc(-c2ccc(-c3cncc(Cl)c3N3CCC4(CCNC4=O)CC3)cc2)cn1`, in that order: -1.65 °C and 0.5 °C.
As for `CNC(=O)c1cc(C(=O)N[C@H]2[C@@H]3COC[C@@H]32)cc2c1O[C@H](CF)[C@H]2c1ccccc1`, the shift in melting temperature (ΔTm) in experiment [1] is -0.69 °C; in experiment [2], 0.65 °C.
Turning to `Cn1cnc(Cn2ccc3ccc(CNCc4[nH]c5ccccc5c4[C@@H]4NC(=O)c5ccc(O)cc54)cc32)c1`, the ΔTm in experiment [1] is -1.61 °C; in experiment [2], 0.85 °C.
In the same order, the values of `O=C(O)c1cc(F)c2nc(N3[C@@H]4CC[C@H]3C[C@@H](OCc3c(-c5ccccc5OC(F)(F)F)noc3C3CC3)C4)sc2c1` are -2.96 °C and -3.83 °C.
In the same order, the values of `CCS(=O)(=O)c1cc2cc(C[C@](O)(CC(C)(C)c3ccc(F)cc3C(N)=O)C(F)(F)F)[nH]c2cn1` are -1.64 °C and 0.43 °C.
With `C1=Cc2ccccc2C(=C2CCN(CCCCc3nnn[nH]3)CC2)c2ccccc21`, the ΔTm in experiment [1] is -1.48 °C; in experiment [2], 0.36 °C.
Regarding `CCCCC(C)(O)C/C=C/[C@H]1[C@H](O)CC(=O)[C@@H]1CCCCCCC(=O)O` (stereo not given in full), the ΔTm in experiment [1] is -1.2 °C; in experiment [2] it was 0.43 °C.
Take `c1ccc2c(c1)SCc1c-2[nH]c2ccccc12`: the ΔTm in experiment [1] was -9.42 °C; in experiment [2], 0.81 °C.
